Test results: patent US20230160007A1, “KIT FOR EVALUATING SENSITIVITY OF PATIENT TO MET INHIBITOR” (Beijing Neurosurgical Institute, priority 2020, published 2023)

What was measured:
Type in all cases: cell-based, human
[1] = test system: glioblastoma PDC sample A; experiment: CCK-8 viable count of glioblastoma PDC sample A after drug treatment; conditions: for Living cell proportion (a value relative to CCK8): PDC sample A, 72 h
Protocol: (§1) Enzymolysis was separately carried out on the four collected glioblastoma samples to obtain glioblastoma PDC samples A, B, C and D.
(§2) The glioblastoma PDC samples A, B, C and D were taken, re-suspended by using a special culture medium, and then respectively inoculated into a 96-well cell culture plate, so that each culture well contained 3000 cells. After inoculation was completed, the 96-well cell culture plate was placed in an incubator containing 5% CO2 at 37° C., and incubation was performed for 24 h. […] After the drug was added, the incubation was continued to be performed for 72 h, then the viable count in each culture well was measured by using CCK-8, and the results are shown in Table 1, Table 2, FIG. 11 and FIG. 12.

[2] = test system: glioblastoma PDC sample B; experiment: CCK-8 viable count of glioblastoma PDC sample B after drug treatment; conditions: for Living cell proportion (a value relative to CCK8): PDC sample B, 72 h
Protocol: as §1
(§3) The glioblastoma PDC samples A, B, C and D were taken, re-suspended by using a special culture medium, and then respectively inoculated into a 96-well cell culture plate, so that each culture well contained 3000 cells. After inoculation was completed, the 96-well cell culture plate was placed in an incubator containing 5% CO2 at 37° C., and incubation was performed for 24 h.

[3] = test system: glioblastoma PDC sample C; experiment: CCK-8 viable count of glioblastoma PDC sample C after drug treatment; conditions: for Living cell proportion (a value relative to CCK8): 72 h
Protocol: as §1, §3

[4] = test system: glioblastoma PDC sample D; experiment: CCK-8 viable count of glioblastoma PDC sample D after drug treatment; conditions: for Living cell proportion (a value relative to CCK8): 72 h
Protocol: as §1, §2

Compound: Cn1nnc2c(C(N)=O)ncn2c1=O [TMZ, temozolomide]
- Living cell proportion (a value relative to CCK8) ([1]; TMZ 50 μM): 0.8481
- Living cell proportion (a value relative to CCK8) ([1]; TMZ 100 μM): 0.8696
- Living cell proportion (a value relative to CCK8) ([1]; TMZ 150 μM): 0.7968
- Living cell proportion (a value relative to CCK8) ([1]; TMZ 200 μM): 0.7843
- Living cell proportion (a value relative to CCK8) ([1]; TMZ 300 μM): 0.7824
- Living cell proportion (a value relative to CCK8) ([1]; TMZ 400 μM): 0.6482
- Living cell proportion (a value relative to CCK8) ([1]; TMZ 600 μM): 0.5261
- Living cell proportion (a value relative to CCK8) ([1]; TMZ 800 μM): 0.4052
- Living cell proportion (a value relative to CCK8) ([1]; TMZ 1000 μM): 0.2577
- Living cell proportion (a value relative to CCK8) ([2]; TMZ 50 μM): 0.8549
- Living cell proportion (a value relative to CCK8) ([2]; TMZ 100 μM): 0.8905
- Living cell proportion (a value relative to CCK8) ([2]; TMZ 150 μM): 0.9369
- Living cell proportion (a value relative to CCK8) ([2]; TMZ 200 μM): 0.8763
- Living cell proportion (a value relative to CCK8) ([2]; TMZ 300 μM): 0.724
- Living cell proportion (a value relative to CCK8) ([2]; TMZ 400 μM): 0.7183
- Living cell proportion (a value relative to CCK8) ([2]; TMZ 600 μM): 0.5489
- Living cell proportion (a value relative to CCK8) ([2]; TMZ 800 μM): 0.345
- Living cell proportion (a value relative to CCK8) ([2]; TMZ 1000 μM): 0.3175
- Living cell proportion (a value relative to CCK8) ([3]; TMZ 50 μM): 0.6188
- Living cell proportion (a value relative to CCK8) ([3]; TMZ 100 μM): 0.5841
- Living cell proportion (a value relative to CCK8) ([3]; TMZ 150 μM): 0.4536
- Living cell proportion (a value relative to CCK8) ([3]; TMZ 200 μM): 0.4768
- Living cell proportion (a value relative to CCK8) ([3]; TMZ 300 μM): 0.4315
- Living cell proportion (a value relative to CCK8) ([3]; TMZ 400 μM): 0.3164
- Living cell proportion (a value relative to CCK8) ([3]; TMZ 600 μM): 0.2817
- Living cell proportion (a value relative to CCK8) ([3]; TMZ 800 μM): 0.2834
- Living cell proportion (a value relative to CCK8) ([3]; TMZ 1000 μM): 0.3585
- Living cell proportion (a value relative to CCK8) ([4]; TMZ 50 μM): 0.7828
- Living cell proportion (a value relative to CCK8) ([4]; TMZ 100 μM): 0.647
- Living cell proportion (a value relative to CCK8) ([4]; TMZ 150 μM): 0.5799
- Living cell proportion (a value relative to CCK8) ([4]; TMZ 200 μM): 0.5468
- Living cell proportion (a value relative to CCK8) ([4]; TMZ 300 μM): 0.4681
- Living cell proportion (a value relative to CCK8) ([4]; TMZ 400 μM): 0.3984
- Living cell proportion (a value relative to CCK8) ([4]; TMZ 600 μM): 0.3435
- Living cell proportion (a value relative to CCK8) ([4]; TMZ 800 μM): 0.2684
- Living cell proportion (a value relative to CCK8) ([4]; TMZ 1000 μM): 0.2529

Compound: C[C@@H](Oc1cc(-c2cnn(C3CCNCC3)c2)cnc1N)c1c(Cl)ccc(F)c1Cl [crizotinib]
- sensitivity of the glioblastoma PDC sample to the drug ([1]; PDC sample A (MET exon 10 and exon 19 deleted), in words): sensitive
- Living cell proportion (a value relative to CCK8) ([1]; crizotinib 0.5 μM): 0.824
- Living cell proportion (a value relative to CCK8) ([1]; crizotinib 1 μM): 0.5684
- Living cell proportion (a value relative to CCK8) ([1]; crizotinib 1.5 μM): 0.4624
- Living cell proportion (a value relative to CCK8) ([1]; crizotinib 2 μM): 0.3834
- Living cell proportion (a value relative to CCK8) ([1]; crizotinib 3 μM): 0.3316
- Living cell proportion (a value relative to CCK8) ([1]; crizotinib 6 μM): 0.2663
- Living cell proportion (a value relative to CCK8) ([1]; crizotinib 9 μM): 0.2482
- Living cell proportion (a value relative to CCK8) ([1]; crizotinib 12 μM): 0.2387
- Living cell proportion (a value relative to CCK8) ([1]; crizotinib 15 μM): 0.2518
- sensitivity of the glioblastoma PDC sample to the drug ([2]; PDC sample B (MET exon 10 deleted), in words): sensitive
- Living cell proportion (a value relative to CCK8) ([2]; crizotinib 0.5 μM): 0.9128
- Living cell proportion (a value relative to CCK8) ([2]; crizotinib 1 μM): 0.7978
- Living cell proportion (a value relative to CCK8) ([2]; crizotinib 1.5 μM): 0.7125
- Living cell proportion (a value relative to CCK8) ([2]; crizotinib 6 μM): 0.3689
- Living cell proportion (a value relative to CCK8) ([2]; crizotinib 9 μM): 0.3059
- Living cell proportion (a value relative to CCK8) ([2]; crizotinib 12 μM): 0.2806
- Living cell proportion (a value relative to CCK8) ([2]; crizotinib 15 μM): 0.2769
- Living cell proportion (a value relative to CCK8) ([3]; crizotinib 0.5 μM): 0.9496
- Living cell proportion (a value relative to CCK8) ([3]; crizotinib 1 μM): 0.8619
- Living cell proportion (a value relative to CCK8) ([3]; crizotinib 2 μM): 0.8082
- Living cell proportion (a value relative to CCK8) ([3]; crizotinib 6 μM): 0.6643
- Living cell proportion (a value relative to CCK8) ([3]; crizotinib 9 μM): 0.4383
- Living cell proportion (a value relative to CCK8) ([3]; crizotinib 12 μM): 0.4003
- Living cell proportion (a value relative to CCK8) ([3]; crizotinib 15 μM): 0.3824
- sensitivity of the glioblastoma PDC sample to the drug ([3]; in words): sensitive
- Living cell proportion (a value relative to CCK8) ([4]; crizotinib 0.5 μM): 0.9247
- Living cell proportion (a value relative to CCK8) ([4]; crizotinib 1 μM): 0.8162
- Living cell proportion (a value relative to CCK8) ([4]; crizotinib 1.5 μM): 0.7327
- Living cell proportion (a value relative to CCK8) ([4]; crizotinib 2 μM): 0.6986
- Living cell proportion (a value relative to CCK8) ([4]; crizotinib 3 μM): 0.7544
- Living cell proportion (a value relative to CCK8) ([4]; crizotinib 6 μM): 0.5995
- Living cell proportion (a value relative to CCK8) ([4]; crizotinib 9 μM): 0.4381
- Living cell proportion (a value relative to CCK8) ([4]; crizotinib 12 μM): 0.3812
- Living cell proportion (a value relative to CCK8) ([4]; crizotinib 15 μM): 0.4752
- sensitivity of the glioblastoma PDC sample to the drug ([4]; in words): sensitive
